Laboratory results published in PubChem BioAssay (NCI).
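Briefly, cells in 96-well plates were exposed to five compound concentrations for 48 h, and endpoints were estimated by linear interpolation. TGI marks complete inhibition of growth.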

Key:
Experiment in all cases: inhibition of tumour cell growth, NCI panel, 48 h
[1] = tested on: HOP-62 NSCLC
[2] = tested on: UO-31 renal
[3] = tested on: NCI-H23 lung
[4] = tested on: KM12 colon
[5] = tested on: CCRF-CEM leukemia
[6] = tested on: HL-60(TB) leukemia
[7] = tested on: NCI-H226 lung
[8] = tested on: NCI-H460 lung
[9] = tested on: HCT-116 colon
[10] = tested on: RXF 393 renal
[11] = tested on: LOX IMVI melanoma
[12] = tested on: SF-539 CNS
[13] = tested on: SNB-75 CNS
[14] = tested on: MALME-3M melanoma
[15] = tested on: LXFL 529 NSCLC
[16] = tested on: COLO 205 colon
[17] = tested on: SK-MEL-5 melanoma
[18] = tested on: OVCAR-4 ovarian
[19] = tested on: K-562 leukemia
[20] = tested on: SN12C renal
[21] = tested on: SK-OV-3 ovarian
[22] = tested on: NCI-H522 lung
[23] = tested on: HCC-2998 colon
[24] = tested on: OVCAR-8 ovarian
[25] = tested on: MOLT-4 leukemia
[26] = tested on: HCT-15 colon
[27] = tested on: DMS 114 small cell lung
[28] = tested on: HOP-18 NSCLC
[29] = tested on: U251 CNS
[30] = tested on: SK-MEL-2 melanoma
[31] = tested on: A549 NSCLC
[32] = tested on: UACC-62 melanoma
[33] = tested on: CAKI-1 renal
[34] = tested on: M14 melanoma
[35] = tested on: SK-MEL-28 melanoma
[36] = tested on: OVCAR-3 ovarian
[37] = tested on: 786-0 renal
[38] = tested on: SNB-19 CNS
[39] = tested on: ACHN renal
[40] = tested on: KM20L2 colon
[41] = tested on: UACC-257 melanoma
[42] = tested on: SF-295 CNS
[43] = tested on: SW-620 colon
[44] = tested on: TK-10 renal
[45] = tested on: RPMI-8226 leukemia
[46] = tested on: XF 498 CNS
[47] = tested on: OVCAR-5 ovarian
[48] = tested on: HOP-92 NSCLC
[49] = tested on: EKVX NSCLC
[50] = tested on: A498 renal
[51] = tested on: SNB-78 CNS
[52] = tested on: DMS 273 small cell lung
[53] = tested on: SF-268 CNS
[54] = tested on: HT29 colon
[55] = tested on: M19-MEL melanoma
[56] = tested on: IGROV1 ovarian
[57] = tested on: SR leukemia
[58] = tested on: DLD-1 colon

Measured: TGI

O=C(O)CCC(=O)N1c2ccccc2CC1c1c[nH]c2ccccc12 (stereo not given)
> 100 µM: [1] | [2] | [3] | [4] | [5] | [6] | [7] | [8] | [9] | [10] | [11] | [12] | [13] | [14] | [15] | [16] | [17] | [18] | [19] | [20] | [21] | [22] | [23] | [24] | [25] | [26] | [27] | [28] | [29] | [30] | [31] | [32] | [33] | [34] | [35] | [36] | [37] | [38] | [39] | [40] | [41] | [42] | [43] | [44] | [45] | [46] | [47] | [48] | [49] | [50] | [51] | [52] | [53] | [54] | [55] | [56]

Cc1ccc2c(c1)C(=O)N(N(C)C)CC(=O)N2
> 100 µM: [57] | [1] | [2] | [3] | [4] | [5] | [6] | [7] | [8] | [9] | [11] | [12] | [13] | [14] | [15] | [16] | [17] | [18] | [19] | [21] | [22] | [58] | [23] | [24] | [25] | [26] | [27] | [28] | [29] | [30] | [31] | [32] | [33] | [34] | [35] | [36] | [38] | [39] | [41] | [42] | [43] | [44] | [45] | [46] | [47] | [48] | [49] | [50] | [51] | [52] | [53] | [54] | [55] | [56]
